Patent EP1096933B1, “USE OF AN INHIBITOR OF CYTOCHROME P450 OPTIONALLY COMBINED WITH AN ANTIFUNGAL AGENT FOR TREATING MYCOSES” (priority 1998, dated 2000)
Where two headings read alike, the source gives them in different places.

Assays:
Assay in all cases: growth of strains streaked on Sabouraud agar containing the products
Format in all cases: cell-based
Microsporum persicolor = conditions: Nannizzia persicolor, Micro.Persicolor, Econazole 1µg/ml, read-out: % DE CROISSANCE
Description: (§1) Ces molécules ont été incorporées dans un milieu gélosé dit de Sabouraud (peptone 10g/l, glucose 10 g/l, gomme agar 15 g/l).
(§2) Des souches de diverses espèces de champignons ont été ensemencées par stries par la méthode de Stires.
(§3) Le pourcentage de croissance a été mesuré au cours du temps, pour des périodes allant jusqu'à 21 jours, pour certaines des souches testées.
(§4) Les quantités de pipéronyl butoxyde, et de cyclopyroxolamine utilisées sont identiques et sont de 10 ou 20 µg/ml dans le cas de l'association entre ces deux composés.
(§5) Dans le cas de l'association entre le pipéronyl butoxyde et l'éconazole, elles sont respectivement de 10 ou 20 µg/ml de pipéronyl butoxyde et de 1 µg/ml d'éconazole.
(§6) Des souches appartenant aux espèces suivantes ont été testées: Microsporum canis, Trichophyton rubrum, Trichophyton interdigitale, Trichophyton mentagrophytes, Microsporum persicolor, Epidermophyton floccosum, Trichophyton violaceum et Trichophyton soudanense.
(§7) L'activité du pipéronyl butoxyde seul a été testée à diverses concentrations, comme indiqué dans le tableau 1 sur le milieu de Sabouraud, dépourvu de tout autre fongicide.

Trichophyton violaceum = conditions: Tric.Violaceum, read-out: % DE CROISSANCE
Description: as §1, §2, §3, §4, §5, §6, §7

[1] = test system: Trichophyton interdigitale; conditions: Tric.Interdigitale, read-out: % DE CROISSANCE
Description: as §1, §2, §3, §4, §5, §6, §7

Microsporum canis = conditions: Micro. Canis, read-out: % DE CROISSANCE
Description: as §1, §2, §3, §4, §5, §6, §7

Trichophyton rubrum = conditions: Tric.Rubrum, read-out: % DE CROISSANCE
Description: as §1, §2, §3, §4, §5, §6, §7

[2] = test system: Trichophyton mentagrophytes; conditions: Tric.Mentagophytes, read-out: % DE CROISSANCE
Description: as §1, §2, §3, §4, §5, §6, §7

Trichophyton soudanense = conditions: Tric.Soudanese, read-out: % DE CROISSANCE
Description: as §1, §2, §3, §4, §5, §6, §7

Epidermophyton floccosum = conditions: Epid.Flocosum, read-out: % DE CROISSANCE
Description: as §1, §2, §3, §4, §5, §6, §7

Structure (SMILES): Clc1ccc(COC(Cn2ccnc2)c2ccc(Cl)cc2Cl)cc1 (stereo not shown) [Econazole, éconazole]
- activity at 1 µg/mL (Microsporum persicolor; 0 h, J0): 0%
- activity at 1 µg/mL (Microsporum persicolor; 96 h, J4): 0%
- activity at 1 µg/mL (Microsporum persicolor; 144 h, J6): 0%
- activity at 1 µg/mL (Microsporum persicolor; 240 h, J10): 15%
- activity at 1 µg/mL (Microsporum persicolor; 336 h, J14): 50%
- activity at 1 µg/mL (Trichophyton violaceum; 0 h, J0, Econazole 1µg/ml): 0%
- activity at 1 µg/mL (Trichophyton violaceum; 96 h, J4, Econazole 1µg/ml): 0%
- activity at 1 µg/mL (Trichophyton violaceum; 144 h, J6, Econazole 1µg/ml): 40%
- activity at 1 µg/mL (Trichophyton violaceum; 240 h, J10, Econazole 1µg/ml): 60%
- activity at 1 µg/mL (Trichophyton violaceum; 336 h, J14, Econazole 1µg/ml): 100%
- activity at 1 µg/mL ([1]; 0 h, J0, Econazole 1µg/ml): 0%
- activity at 1 µg/mL ([1]; 96 h, J4, Econazole 1µg/ml): 5%
- activity at 1 µg/mL ([1]; 144 h, J6, Econazole 1µg/ml): 5%
- activity at 1 µg/mL ([1]; 240 h, J10, Econazole 1µg/ml): 40%
- activity at 1 µg/mL ([1]; 336 h, J14, Econazole 1µg/ml): 60%
- activity at 1 µg/mL (Microsporum canis; 0 h, J0, Econazole 1µg/ml): 0%
- activity at 1 µg/mL (Microsporum canis; 96 h, J4, Econazole 1µg/ml): 0%
- activity at 1 µg/mL (Microsporum canis; 144 h, J6, Econazole 1µg/ml): 10%
- activity at 1 µg/mL (Microsporum canis; 240 h, J10, Econazole 1µg/ml): 40%
- activity at 1 µg/mL (Microsporum canis; 336 h, J14, Econazole 1µg/ml): 80%
- activity at 1 µg/mL (Trichophyton rubrum; 0 h, J0, Econazole 1µg/ml): 0%
- activity at 1 µg/mL (Trichophyton rubrum; 96 h, J4, Econazole 1µg/ml): 0%
- activity at 1 µg/mL (Trichophyton rubrum; 144 h, J6, Econazole 1µg/ml): 20%
- activity at 1 µg/mL (Trichophyton rubrum; 240 h, J10, Econazole 1µg/ml): 60%
- activity at 1 µg/mL (Trichophyton rubrum; 336 h, J14, Econazole 1µg/ml): 70%
- activity at 1 µg/mL ([2]; 0 h, J0, Econazole 1µg/ml): 0%
- activity at 1 µg/mL ([2]; 96 h, J4, Econazole 1µg/ml): 5%
- activity at 1 µg/mL ([2]; 144 h, J6, Econazole 1µg/ml): 10%
- activity at 1 µg/mL ([2]; 240 h, J10, Econazole 1µg/ml): 30%
- activity at 1 µg/mL ([2]; 336 h, J14, Econazole 1µg/ml): 40%
- activity at 1 µg/mL (Trichophyton soudanense; 0 h, J0, Econazole 1µg/ml): 0%
- activity at 1 µg/mL (Trichophyton soudanense; 96 h, J4, Econazole 1µg/ml): 0%
- activity at 1 µg/mL (Trichophyton soudanense; 144 h, J6, Econazole 1µg/ml): 0%
- activity at 1 µg/mL (Trichophyton soudanense; 240 h, J10, Econazole 1µg/ml): 30%
- activity at 1 µg/mL (Trichophyton soudanense; 336 h, J14, Econazole 1µg/ml): 60%
- activity at 1 µg/mL (Epidermophyton floccosum; 0 h, J0, Econazole 1µg/ml): 0%
- activity at 1 µg/mL (Epidermophyton floccosum; 96 h, J4, Econazole 1µg/ml): 0%
- activity at 1 µg/mL (Epidermophyton floccosum; 144 h, J6, Econazole 1µg/ml): 0%
- activity at 1 µg/mL (Epidermophyton floccosum; 240 h, J10, Econazole 1µg/ml): 5%
- activity at 1 µg/mL (Epidermophyton floccosum; 336 h, J14, Econazole 1µg/ml): 10%
